Patent US20230064990A1, “DOSING REGIMENS AND METHODS FOR TREATING CANCER” (Panbela Therapeutics, Inc., priority 2020, published 2023)
Several values for one entry are separate records, joined by “and”; a condition that tells them apart may be missing. Equal entries are not always repeated.

Assays:
[1] = Repeat doses in healthy beagles; assay type: in vivo
Experimental: This effect on the exocrine pancreas in dogs (causing nearly complete ablation of the exocrine pancreas) was an unexpected finding in development of this polyamine analogue as a therapeutic agent. It occurred in a dose-dependent manner several weeks after drug dosing was discontinued in dogs. Beginning 5 to 6 weeks post last dose, the animals at the high-dose levels rapidly lost weight and their serum trypsin-like immunoreactivity decreased to <2.5 μg/L, which is diagnostic for exocrine pancreatic insufficiency in this species. In addition, fat absorption tests became abnormal and hepatic transaminase values increased. The pancreata of euthanized animals were grossly atrophied with diffuse moderate to severe pancreatic atrophy, especially of the acini. However, the islets appeared both histologically intact and functional based on serum glucose levels and oral glucose tolerance tests.

[2] = system: locally advanced or metastatic PDA; assay: Phase 1 monotherapy dose escalation study, efficacy (RECIST, overall survival); assay type: in vivo, human
Experimental: Efficacy was assessed by RECIST criteria and overall survival.

clinical = settings: human, in vivo
Experimental: Safety and tolerability were evaluated by clinical and laboratory assessments. PK was evaluated on Days 1 and 18 of cycle 1. Efficacy was assessed by RECIST criteria and overall survival.

[3] = Phase 1a/1b study in combination with G and A, safety; assay type: in vivo, human
Experimental: (§1) G (1000 mg/m^2) and A (125 mg/m^2) were administered intravenously on Days 1, 8, and 15 of each cycle. […] PK was evaluated on day 1 of cycle 1. Efficacy was assessed by CA19-9 levels, objective response was assessed by RECIST criteria, progression-free survival (PFS) and overall survival (OS).
(§2) This is a multicenter, open label, Phase 1a/1b study to evaluate to evaluate the safety, tolerability, pharmacokinetics and efficacy of (S,S)-(HO)2DEHSPM when administered in combination with G and A as first-line therapy in pancreatic cancer patients previously untreated for metastatic disease. The objective was to determine a recommended Phase 2 dose. Using a modified 3+3 dose escalation scheme, cohorts of subjects were dosed with subcutaneous injections of (S,S)-(HO)2DEHSPM at 0.2, 0.4 or 0.6 mg/kg days 1-5 of each 28-day cycle. Gemcitabine (1000 mg/m^2) and A (125 mg/m^2) were administered intravenously on Days 1, 8, and 15 of each cycle. […] PK was evaluated on day 1 of cycle 1. Efficacy was assessed by objective response rate (ORR) using RECIST criteria and by changes in CA19-9 levels. Subjects were treated until disease progression or the development of dose-limiting toxicity. Based upon initial safety findings and preliminary signals of efficacy, the protocol was amended to evaluate progression-free survival (PFS) and overall survival (OS) and expand the study to up to 36 subjects at the recommended Phase 2 dose. To date, 20 subjects were enrolled in cohorts 1-3 and evaluated for dose limiting toxicity and early signals of efficacy.

[4] = 4-week repeated dose toxicity study in rats; assay type: in vivo
Experimental: For the first-in-human (Phase 1a/1b) study, a starting dose of 0.05 mg/kg (1.8 mg/m^2) of (S,S)-(HO)2DEHSPM.4HCl was chosen as 1/10 the severely toxic dose (STD10) observed in a 4-week repeated dose toxicity study in rats (3 mg/kg/day; […]). This dose was chosen in accordance with the ICH S9 Guideline for the Nonclinical Development for Anti-Cancer Pharmaceuticals. For the Phase 1a/1b dosing schedule patients were administered up to 0.4 mg/kg/day Monday through Friday for 3 weeks for a total cumulative dose (TCD) of 6 mg/kg. In this animal experiment, one cycle consisted of 3 weeks of dosing and 5 weeks of rest for a total cycle length of 8 weeks.

metastatic PDA = assay: Phase 1a/1b study in combination with G and A, efficacy (RECIST, CA19-9); assay type: in vivo, human
Experimental: as §1, §2

[5] = N=20, (S,S)-(HO)2DEHSPM with G + A
[6] = N=20, in combination with G + A
[7] = Cohorts 2 and 3, N=13 evaluable, with G and A
[8] = in combination with G+A, previously untreated metastatic PDA
[9] = interim, cohorts 2 and 3, with G and A

## CCNCCC(O)CNCCCCNCC(O)CCNCC [(S,S)-(HO)2DEHSPM, (6S,15S)-3,8,13,18-teraazaicosane-6,15-diol]
[1]; cumulative exposure to repeat doses
  effect on exocrine pancreas: exocrine pancreatic atrophy with exocrine pancreatic insufficiency without an inflammatory response and with preservation of islet cell function
[1]; high-dose levels, beginning 5 to 6 weeks post last dose
  serum trypsin-like immunoreactivity: < 2.5 µg/L
[2]; cohort 3 (0.2 mg/kg), N=4
  Stable disease: 2 patients
[2]; cohort 3 (0.2 mg/kg), N=4, heavily pre-treated PDA patients
  Median survival: 5.9 months
[2]; cohort 4 (0.4 mg/kg), N=7
  Stable disease: 2 patients
[2]; cohort 5 (0.8 mg/kg), N=10
  Stable disease: 4 patients
clinical
  MTD at 3 weeks: < 0.8 mg/kg and < 0.8 mg/kg/day
[3]; N=20
  Grade ≥3 Anemia related to the named study medication (subjects): 0
  Grade ≥3 Dehydration related to the named study medication (subjects): 0
  Grade ≥3 Delirium related to the named study medication (subjects): 0
  Grade ≥3 Dyspnea related to the named study medication (subjects): 0
  Grade ≥3 Elevated LFTs related to the named study medication (subjects): 4
  Grade ≥3 Elevated Lipase related to the named study medication (subjects): 1
  Grade ≥3 Fatigue related to the named study medication (subjects): 0
  Grade ≥3 Hiccups (Intractable) related to the named study medication (subjects): 0
  Grade ≥3 Hyponatremia related to the named study medication (subjects): 0
  Grade ≥3 Neutropenia related to the named study medication (subjects): 0
  Grade ≥3 Thrombocytopenia related to the named study medication (subjects): 0
[3]; [5]
  Grade ≥3 Anemia related to any study medication, Total (%): (15%)
  Grade ≥3 Anemia related to any study medication, Total N: 3
  Grade ≥3 Dehydration related to any study medication, Total (%): (5%)
  Grade ≥3 Dehydration related to any study medication, Total N: 1
  Grade ≥3 Delirium related to any study medication, Total (%): (5%)
  Grade ≥3 Delirium related to any study medication, Total N: 1
  Grade ≥3 Dyspnea related to any study medication, Total (%): (5%)
  Grade ≥3 Dyspnea related to any study medication, Total N: 1
  Grade ≥3 Elevated LFTs related to any study medication, Total (%): (20%)
  Grade ≥3 Elevated LFTs related to any study medication, Total N: 4
  Grade ≥3 Elevated Lipase related to any study medication, Total (%): (5%)
  Grade ≥3 Elevated Lipase related to any study medication, Total N: 1
  Grade ≥3 Fatigue related to any study medication, Total (%): (5%)
  Grade ≥3 Fatigue related to any study medication, Total N: 1
  Grade ≥3 Hiccups (Intractable) related to any study medication, Total (%): (5%)
  Grade ≥3 Hiccups (Intractable) related to any study medication, Total N: 1
  Grade ≥3 Hyponatremia related to any study medication, Total (%): (5%)
  Grade ≥3 Hyponatremia related to any study medication, Total N: 1
  Grade ≥3 Neutropenia related to any study medication, Total (%): (30%)
  Grade ≥3 Neutropenia related to any study medication, Total N: 6
  Grade ≥3 Thrombocytopenia related to any study medication, Total (%): (5%)
  Grade ≥3 Thrombocytopenia related to any study medication, Total N: 1
[3]; [6]
  Grade ≥ 3 Anemia, %: 15%
  Grade ≥ 3 Diarrhea, %: 0%
  Grade ≥ 3 Fatigue, %: 5%
  Grade ≥ 3 Leukopenia (G3-4), %: 15%
  Grade ≥ 3 Neutropenia (G3-4), %: 30%
  Grade ≥ 3 Peripheral Neuropathy, %: 0%
  Grade ≥ 3 Thrombocytopenia, %: 5%
[3]; N=20, with G+A
  Diarrhea, Grade 1 (related AE, subjects): 1
  Diarrhea, Grade 2 (related AE, subjects): 1
  Diarrhea, Grade 3 (related AE, subjects): 0
  Diarrhea, Grade 4 (related AE, subjects): 0
  Diarrhea, Grade 5 (related AE, subjects): 0
  Diarrhea, Total (%) (related AE): 10%
  Diarrhea, Total N (related AE): 2
  Elevated Liver Function Tests (LFTs), Grade 1 (related AE, subjects): 0
  Elevated Liver Function Tests (LFTs), Grade 2 (related AE, subjects): 0
  Elevated Liver Function Tests (LFTs), Grade 3 (related AE, subjects): 3
  Elevated Liver Function Tests (LFTs), Grade 4 (related AE, subjects): 1
  Elevated Liver Function Tests (LFTs), Grade 5 (related AE, subjects): 0
  Elevated Liver Function Tests (LFTs), Total (%) (related AE): 20%
  Elevated Liver Function Tests (LFTs), Total N (related AE): 4
  Fatigue, Grade 1 (related AE, subjects): 4
  Fatigue, Grade 2 (related AE, subjects): 3
  Fatigue, Grade 3 (related AE, subjects): 1
  Fatigue, Grade 4 (related AE, subjects): 0
  Fatigue, Grade 5 (related AE, subjects): 0
  Fatigue, Total (%) (related AE): 40%
  Fatigue, Total N (related AE): 8
  Injection site pain, Grade 1 (related AE, subjects): 4
  Injection site pain, Grade 2 (related AE, subjects): 0
  Injection site pain, Grade 3 (related AE, subjects): 0
  Injection site pain, Grade 4 (related AE, subjects): 0
  Injection site pain, Grade 5 (related AE, subjects): 0
  Injection site pain, Total (%) (related AE): 20%
  Injection site pain, Total N (related AE): 4
  Nausea, Grade 1 (related AE, subjects): 1
  Nausea, Grade 2 (related AE, subjects): 1
  Nausea, Grade 3 (related AE, subjects): 0
  Nausea, Grade 4 (related AE, subjects): 0
  Nausea, Grade 5 (related AE, subjects): 0
  Nausea, Total (%) (related AE): 10%
  Nausea, Total N (related AE): 2
[3]; interim, one patient in cohort 2 (0.4 mg/kg), with G and A
  liver enzyme elevation: grade 3-4 reversible liver enzyme elevation
[3]; interim, with G and A
  (S,S)-(HO)2DEHSPM-related bone marrow suppression or peripheral neuropathy: no evidence of (S,S)-(HO)2DEHSPM-related bone marrow suppression or peripheral neuropathy
[3]; when administration was interrupted and dose-reduced or discontinued
  reversibility of (S,S)-(HO)2DEHSPM-related increases in liver toxicity: reversed in all but one subject
[4]
  severely toxic dose (STD10): 3 mg/kg/day
Metastatic PDA; [7]
  Best response PR, number of evaluable subjects: 8
  Best response PR, percent of evaluable subjects: 62%
  Best response SD, number of evaluable subjects: 5
  Best response SD, percent of evaluable subjects: 38%
Metastatic PDA; cohorts 2 and 3, N=16, with G and A
  subjects with CA 19-9 maximum decrease greater than 60%: 69%
Metastatic PDA; [8]
  DCR: 85%
  ORR: 62%
Metastatic PDA; interim, cohorts 2 and 3, 7 of 8 evaluable subjects, with G and A
  CA19-9 levels decreased: 76-95%
Metastatic PDA; [9]
  Stable disease: 1
  partial responses: 5 patients
